{"source": "ChEMBL document CHEMBL3792380", "about": "“A sub-milligram-synthesis protocol for in vitro screening of HDAC11 inhibitors” (Bioorg Med Chem Lett, 2016)", "biological_target": "T1, Histone deacetylase 11 (Homo sapiens, UniProt Q96DB2)", "T1 sequence (Q96DB2 whole entry)": "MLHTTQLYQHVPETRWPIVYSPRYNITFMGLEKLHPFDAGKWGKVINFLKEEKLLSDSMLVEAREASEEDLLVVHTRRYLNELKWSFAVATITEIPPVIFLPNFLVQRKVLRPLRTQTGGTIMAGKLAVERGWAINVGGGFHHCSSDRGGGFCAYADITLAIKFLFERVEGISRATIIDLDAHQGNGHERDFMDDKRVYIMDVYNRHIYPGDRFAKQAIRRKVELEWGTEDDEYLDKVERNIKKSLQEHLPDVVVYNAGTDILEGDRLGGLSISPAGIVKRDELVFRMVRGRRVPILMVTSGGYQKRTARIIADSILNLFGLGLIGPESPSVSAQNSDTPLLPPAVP", "assay": "Inhibition of His-tagged human HDAC11 expressed in Sf9 cells using Ac-Arg-Gly-Lys(Ac)-AMC as substrate by fluorometric assay"}
{"smiles": "O=C(/C=C/c1cn([C@H]2C[C@@H](CO)N(Cc3ccccc3)C2)nn1)NO", "values": [{"measurement": "IC50", "value": 1200, "unit": "nM"}]}
